# Patent US6573293B2, “Pyrrole substituted 2-indolinone protein kinase inhibitors” (Sugen, Inc., priority 2000, dated 2003)
# pIC50: −log10 of the molar value.
# Tests used:
# PDGFR-β = target: T1, PDGFR-β (Homo sapiens, UniProt P09619); assay: PDGFR bioassay (bio PDGF); format: biochemical
# T1 construct: host or cells: NIH 3T3
# Procedure: Corning 96-well Elisa plates
# 28D4C10 monoclonal anti-PDGFR antibody (SUGEN, Inc.).
# Blocking Buffer (same as for EGFR bioassay).
# PDGFR-β expressing NIH 3T3 cell lysate (SUGEN, Inc.).
# Kinase buffer phosphorylation mix: for 10 ml, mix 250 μl 1M TRIS, 200 μl 5M NaCl, 100 μl 1M MnCl2 and 50 μl 100 mM Triton X-100 in enough dH2O to make 10 ml.
# (§1) NUNC 96-well V bottom polypropylene plates.
# Rabbit polyclonal anti-phosphotyrosine serum (SUGEN, Inc.).
# Goat anti-rabbit IgG peroxidase conjugate (Biosource Cat. No. ALI0404).
# Hydrogen peroxide, 30% solution.
# Coat Corning 96 well ELISA plates with 0.5 μg 28D4C10 in 100 μl PBS per well, store overnight at 4° C.
# Remove unbound 28D4C10 from wells by inverting plate to remove liquid. Wash 1×with dH2O. Pat the plate on a paper towel to remove excess liquid.
# Add 150 μl of Blocking Buffer to each well. Incubate for 30 min. at room temperature with shaking.
# Wash plate 3×with deionized water, then once with TBST. Pat plate on a paper towel to remove excess liquid and bubbles.
# Dilute lysate in HNTG (10 μg lysate/100 μl HNTG).
# Add 100 μl of diluted lysate to each well. Shake at room temperature for 60 min.
# Wash plates as described in Step 4.
# Add 80 μl working kinase buffer mix to ELISA plate containing captured PDGFR.
# Add 10 μl diluted test compound to ELISA plate. To control wells, add 10 μl TBS+10% DMSO. Incubate with shaking for 30 minutes at room temperature.
# Add 10 μl ATP directly to all wells except negative control well (final well volume should be approximately 100 μl with 20 μM ATP in each well.) Incubate 30 minutes with shaking.
# Stop reaction by adding 10 μl of EDTA solution to each well.
# Wash 4×with deionized water, twice with TBST.
# Add 100 μl anti-phosphotyrosine (1:3000 dilution in TBST) per well. Incubate with shaking for 30-45 min. at room temperature.
# Incubate with shaking for 30 min. at room temperature.
# Add 100 μl of ABTS/H2O2 solution to each well.
# Incubate 10 to 30 minutes with shaking. Remove any bubbles.
# If necessary stop reaction with the addition of 100 μl 0.2 M HCl per well.
# EGFR [1] = target: T2, EGFR (Homo sapiens, UniProt P00533); assay: EGFR bioassay (bio EGF); format: biochemical
# T2 construct: A431 cell lysate (SUGEN, Inc.); host or cells: A431
# Procedure: This assay is used to the in vitro kinase activity of FGF1-R in an ELISA assay.
# 1. Corning 96-well Elisa plates.
# 2. SUMO1 monoclonal anti-EGFR antibody (SUGEN, Inc.).
# 5. Blocking Buffer: for 100 ml, mix 5.0 g Carnation Instant Non-fat Milk® with 100 ml of PBS.
# 6. A431 cell lysate (SUGEN, Inc.).
# 9. […] This reagent should be made up immediately prior to use and kept on ice.
# 11. […] Prepare just prior to use, keep on ice.
# 12. NUNC 96-well V bottom polypropylene plates.
# 14. Rabbit polyclonal anti-phosphotyrosine serum (SUGEN, Inc.).
# 15. Goat anti-rabbit IgG peroxidase conjugate (Biosource Cat. No. ALI0404).
# 17. 30% Hydrogen peroxide.
# 1. Coat Corning 96 well ELISA plates with 0.5 μg SUMO1 in 100 μl PBS per well, store overnight at 4° C.
# 2. Remove unbound SUMO1 from wells by inverting plate to remove liquid. Wash 1×with dH2O. Pat the plate on a paper towel to remove excess liquid.
# 3. Add 150 μl of Blocking Buffer to each well. Incubate, with shaking, for 30 min. at room temperature.
# 4. Wash plate 3×with deionized water, then once with TBST. Pat plate on a paper towel to remove excess liquid and bubbles.
# 5. Dilute lysate in PBS (7 μg lysate/100 μl PBS).
# 6. Add 100 μl of diluted lysate to each well. Shake at room temperature for 1 hr.
# 7. Wash plates as in 4, above.
# 8. Add 120 μl TBS to ELISA plate containing captured EGFR.
# 10. Add 13.5 μl diluted test compound to ELISA plate. To control wells, add 13.5 μl TBS in 10% DMSO.
# 11. Incubate, with shaking, for 30 minutes at room temperature.
# 12. Add 15 μl phosphorylation mix to all wells except negative control well. Final well volume should be approximately 150 μl with 3 μM ATP/5 mM MnCl2 final concentration in each well. Incubate with shaking for 5 minutes.
# 13. Stop reaction by adding 16.5 μl of EDTA solution while shaking. Shake for additional 1 min.
# 14. Wash 4×with deionized water, 2×with TBST.
# 15. Add 100 μl anti-phosphotyrosine (1:3000 dilution in TBST) per well. Incubate, with shaking, for 30-45 min. at room temperature.
# 17. […] Incubate with shaking for 30 min. at room temperature.
# 19. Add 100 μl of ABTS/H2O2 solution to each well.
# 20. Incubate 5 to 10 minutes with shaking. Remove any bubbles.
# 21. If necessary, stop reaction by adding 100 μl 0.2 M HCl per well.
# EGFR [2] = target: T2, EGFR; assay: cell EGF assay; format: cell-based
# Procedure: Several of the assays described herein are performed in an ELISA (Enzyme-Linked Immunosorbent Sandwich Assay) format (Voller, et al., 1980, “Enzyme-Linked Immunosorbent Assay,” Manual of Clinical Immunology, 2d ed., Rose and Friedman, Am. Soc. Of Microbiology, Washington, D.C., pp. 359-371). The general procedure is as follows: a compound is introduced to cells expressing the test kinase, either naturally or recombinantly, for a selected period of time after which, if the test kinase is a receptor, a ligand known to activate the receptor is added. The cells are lysed and the lysate is transferred to the wells of an ELISA plate previously coated with a specific antibody recognizing the substrate of the enzymatic phosphorylation reaction. Non-substrate components of the cell lysate are washed away and the amount of phosphorylation on the substrate is detected with an antibody specifically recognizing phosphotyrosine compared with control cells that were not contacted with a test compound.
# HER-2 kinase = target: T3, HER-2 kinase (Homo sapiens, UniProt P04626); assay: Cellular HER-2 kinase assay; format: cell-based; conditions: read-out: Her2 Kinase IC50
# T3 construct: Use EGFr/HER-2 chimera/3T3-C7 cell line for this assay; It is expressed in mouse NIH 3T3 clone C7 cells; P00533 (Epidermal growth factor receptor)
# Procedure: Cellular HER-2 Kinase Assay
# This assay is used to measure HER-2 kinase activity in whole cells in an ELISA format.
# Fetal Bovine Serum (FBS, GIBCO Catalog #16000-044), heat inactivated in a water bath for 30 min. at 56° C.
# Corning 96-well ELISA Plates.
# as §1
# SUMO 1: monoclonal anti-EGFR antibody (SUGEN, Inc.).
# Blocking Buffer: 5% Carnation Instant Milk® in PBS.
# Suspend powder in 100 uL of 10 mM HCl. Add 100 uL 10 mM NaOH. Add 800 uL PBS and transfer to an Eppendorf tube, store at −20° C. until ready to use.
# Na3VO4. […] Adjust pH to 10. Boil in microwave for one minute (solution becomes clear). Cool to room temperature. Adjust pH to 10. Repeat heating/cooling cycle until pH remains at 10.
# Rabbit polyclonal antiserum specific for phosphotyrosine (anti-Ptyr antibody, SUGEN, Inc.).
# Affinity purified antiserum, goat anti-rabbit IgG antibody, peroxidase conjugate (Biosource Cat #ALI0404).
# 30% Hydrogen peroxide solution.
# Coat Corning 96 well ELISA plates with SUMO1 at 1.0 ug per well in PBS, 100 ul final volume/well. Store overnight at 4° C.
# On day of use, remove coating buffer and wash plate 3 times with dH2O and once with TBST buffer. All washes in this assay should be done in this manner, unless otherwise specified.
# Add 100 ul of Blocking Buffer to each well. Incubate plate, with shaking, for 30 min. at room temperature. Just prior to use, wash plate.
# Use EGFr/HER-2 chimera/3T3-C7 cell line for this assay.
# Choose dishes having 80-90% confluence. Collect cells by trypsinization and centrifuge at 1000 rpm at room temperature for 5 min.
# Resuspend cells in starve medium and count with trypan blue. Viability above 90% is required. Seed cells in starve medium at a density of 2,500 cells per well, 90 ul per well, in a 96 well microtiter plate. Incubate seeded cells overnight at 37° under 5% CO2.
# Start the assay two days after seeding.
# Test compounds are dissolved in 4% DMSO. Samples are then further diluted directly on plates with starve-DMEM. Typically, this dilution will be 1:10 or greater.
# Incubate under 5% CO2 at 37° C. for 2 hours.
# Prepare fresh HNTG* sufficient for 100 ul per well; place on ice.
# After 2 hour incubation with test compound, add prepared EGF ligand to cells, 50 ul per well, for a final concentration of 50 nM. Positive control wells receive the same amount of EGF. […] Incubate at 37° C. for 10 min.
# Remove test compound, EGF, and DMEM. Wash cells once with PBS.
# Transfer HNTG* to cells, 100 ul per well. Place on ice for 5 minutes. Meanwhile, remove blocking buffer from ELISA plate and wash.
# Scrape cells from plate with a micropipettor and homogenize cell material by repeatedly aspirating and dispensing the HNTG* lysis buffer. Transfer lysate to a coated, blocked, washed ELISA plate. Or, use a Costar transfer cartridge to transfer lysate to the plate.
# Incubate, with shaking, at room temperature for 1 hr.
# Remove lysate, wash. Transfer freshly diluted anti-Ptyr antibody (1:3000 in TBST) to ELISA plate, 100 ul per well.
# Incubate, with shaking, at room temperature, for 30 min.
# Remove anti-Ptyr antibody, wash. Transfer freshly diluted BIOSOURCE antibody to ELISA plate (1:8000 in TBST, 100 ul per well).
# Incubate, with shaking, at room temperature for 30 min.
# Remove BIOSOURCE antibody, wash. Transfer freshly prepared ABTS/H2O2 solution to ELISA plate, 100 ul per well.
# Stop reaction with the addition of 100 ul of 0.2M HCl per well.
# GST-Flk1 = target: T4, GST-Flk1 (Mus musculus, UniProt P35918); assay: GST-FLK-1 bioassay (bio flkGST); format: biochemical
# T4 construct: GST-Flk1cd purified from sf9 recombinant baculovirus transformation; host or cells: Sf9 (baculovirus)
# T4 sequence (P35918 784-1345 limits assumed): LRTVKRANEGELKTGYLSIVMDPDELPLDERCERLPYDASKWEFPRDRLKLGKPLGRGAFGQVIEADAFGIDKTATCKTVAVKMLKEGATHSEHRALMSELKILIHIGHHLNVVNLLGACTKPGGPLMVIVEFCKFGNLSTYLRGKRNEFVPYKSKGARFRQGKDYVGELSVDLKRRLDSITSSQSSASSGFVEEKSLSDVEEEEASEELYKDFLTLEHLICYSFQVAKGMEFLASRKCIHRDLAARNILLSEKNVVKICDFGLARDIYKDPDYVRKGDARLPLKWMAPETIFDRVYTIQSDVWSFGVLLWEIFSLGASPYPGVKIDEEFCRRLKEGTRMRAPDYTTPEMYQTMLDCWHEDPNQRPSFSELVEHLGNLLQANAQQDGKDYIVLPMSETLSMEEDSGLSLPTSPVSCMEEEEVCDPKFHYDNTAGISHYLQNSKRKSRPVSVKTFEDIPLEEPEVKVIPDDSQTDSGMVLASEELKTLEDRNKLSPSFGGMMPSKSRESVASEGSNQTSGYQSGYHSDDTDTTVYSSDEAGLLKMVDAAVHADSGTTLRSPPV
# T2 sequence (P00533 25-1210): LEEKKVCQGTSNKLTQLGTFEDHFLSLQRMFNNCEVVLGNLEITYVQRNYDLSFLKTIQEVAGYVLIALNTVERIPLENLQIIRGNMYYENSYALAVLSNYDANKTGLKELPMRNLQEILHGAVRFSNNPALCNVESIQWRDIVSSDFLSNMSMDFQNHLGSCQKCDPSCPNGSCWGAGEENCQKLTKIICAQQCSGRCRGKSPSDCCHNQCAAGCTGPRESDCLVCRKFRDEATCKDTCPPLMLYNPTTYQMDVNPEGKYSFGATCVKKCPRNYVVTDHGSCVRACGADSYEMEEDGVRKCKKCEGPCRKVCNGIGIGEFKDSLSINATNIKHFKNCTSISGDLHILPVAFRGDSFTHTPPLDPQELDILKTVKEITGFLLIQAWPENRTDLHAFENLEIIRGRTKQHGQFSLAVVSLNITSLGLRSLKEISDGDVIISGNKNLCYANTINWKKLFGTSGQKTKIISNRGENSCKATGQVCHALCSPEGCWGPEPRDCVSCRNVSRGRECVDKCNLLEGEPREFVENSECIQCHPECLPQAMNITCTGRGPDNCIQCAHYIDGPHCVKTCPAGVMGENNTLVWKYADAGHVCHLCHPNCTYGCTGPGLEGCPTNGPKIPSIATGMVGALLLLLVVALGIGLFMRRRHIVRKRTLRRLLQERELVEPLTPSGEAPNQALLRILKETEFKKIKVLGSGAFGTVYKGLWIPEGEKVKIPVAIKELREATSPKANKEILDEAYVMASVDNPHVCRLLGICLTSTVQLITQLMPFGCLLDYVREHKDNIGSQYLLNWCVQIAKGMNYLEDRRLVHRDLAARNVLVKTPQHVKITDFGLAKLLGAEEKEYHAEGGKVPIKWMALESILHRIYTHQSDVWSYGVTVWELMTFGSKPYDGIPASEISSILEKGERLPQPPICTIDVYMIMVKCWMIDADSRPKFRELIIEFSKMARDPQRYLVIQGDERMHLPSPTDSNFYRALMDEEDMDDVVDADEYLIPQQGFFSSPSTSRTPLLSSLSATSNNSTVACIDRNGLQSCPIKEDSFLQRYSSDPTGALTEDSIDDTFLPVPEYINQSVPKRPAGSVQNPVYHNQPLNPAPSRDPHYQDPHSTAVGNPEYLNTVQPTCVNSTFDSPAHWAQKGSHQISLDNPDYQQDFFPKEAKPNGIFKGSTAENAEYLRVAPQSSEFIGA
# T3 sequence (P04626 720-987 limits assumed): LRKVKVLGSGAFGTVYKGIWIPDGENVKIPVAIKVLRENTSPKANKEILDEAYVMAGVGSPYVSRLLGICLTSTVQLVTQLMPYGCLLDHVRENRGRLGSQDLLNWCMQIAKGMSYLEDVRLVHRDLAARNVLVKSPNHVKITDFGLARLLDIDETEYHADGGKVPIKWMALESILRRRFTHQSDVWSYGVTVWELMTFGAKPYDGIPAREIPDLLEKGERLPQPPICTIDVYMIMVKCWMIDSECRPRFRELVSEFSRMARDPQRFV
# T1 sequence (P09619 33-1106): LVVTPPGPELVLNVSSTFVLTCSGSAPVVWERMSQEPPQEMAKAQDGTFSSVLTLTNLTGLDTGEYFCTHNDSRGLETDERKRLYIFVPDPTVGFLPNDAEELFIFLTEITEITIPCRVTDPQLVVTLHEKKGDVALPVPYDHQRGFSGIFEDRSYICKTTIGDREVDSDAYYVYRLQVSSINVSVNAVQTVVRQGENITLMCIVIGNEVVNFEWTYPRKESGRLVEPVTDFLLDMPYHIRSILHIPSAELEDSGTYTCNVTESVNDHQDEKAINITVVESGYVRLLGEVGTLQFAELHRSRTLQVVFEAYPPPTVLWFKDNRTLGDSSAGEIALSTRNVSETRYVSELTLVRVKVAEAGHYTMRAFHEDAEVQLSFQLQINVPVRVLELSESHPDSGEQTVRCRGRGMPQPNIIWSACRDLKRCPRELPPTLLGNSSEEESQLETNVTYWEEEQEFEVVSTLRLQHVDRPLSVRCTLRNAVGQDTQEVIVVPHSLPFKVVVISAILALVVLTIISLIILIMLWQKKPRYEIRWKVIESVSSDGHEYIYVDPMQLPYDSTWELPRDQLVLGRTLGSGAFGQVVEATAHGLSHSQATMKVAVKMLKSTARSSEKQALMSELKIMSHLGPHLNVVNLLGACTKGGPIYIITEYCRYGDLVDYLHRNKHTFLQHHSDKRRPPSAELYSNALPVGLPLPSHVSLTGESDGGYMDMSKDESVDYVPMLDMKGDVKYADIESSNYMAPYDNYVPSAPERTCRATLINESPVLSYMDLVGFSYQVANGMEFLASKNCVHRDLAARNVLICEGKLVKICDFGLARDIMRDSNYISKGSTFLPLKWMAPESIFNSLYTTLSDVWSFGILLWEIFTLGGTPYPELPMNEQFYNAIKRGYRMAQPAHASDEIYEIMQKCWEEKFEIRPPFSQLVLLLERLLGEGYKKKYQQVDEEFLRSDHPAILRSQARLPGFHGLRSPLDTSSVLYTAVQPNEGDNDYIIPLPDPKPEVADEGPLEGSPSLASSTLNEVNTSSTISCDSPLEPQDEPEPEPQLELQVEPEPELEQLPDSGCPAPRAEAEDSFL
SMILES,pIC50 (PDGFR-β),pIC50 (EGFR [1]),pIC50 (EGFR [2]),pIC50 (HER-2 kinase),pIC50 (GST-Flk1)
"Cc1[nH]c(/C=C2\C(=O)Nc3cc(-c4ccccc4)ccc32)c(C)c1C(=O)NCCCn1ccnc1 [Example 61, 2,4-Dimethyl-5-(2-oxo-6-phenyl-1,2-dihydroindol-3-ylidenemethyl)-1H-pyrrole-3-carboxylic acid (3-imidazol-1-ylpropyl)amide]",> 6.11,< 4.00,< 4.00,< 4.00,–
"Cc1[nH]c(/C=C2\C(=O)Nc3ccc(Br)cc32)c(C)c1C(=O)NCCCn1ccnc1 [Example 53, 5-(5-Bromo-2-oxo-1,2-dihydroindol-3-ylidenemethyl)-2,4-dimethyl-1H-pyrrole-3-carboxylic acid (3-imidazol-1-ylpropyl)amide]",> 6.11,< 4.00,< 4.00,< 4.00,–
"COc1ccccc1-c1ccc2c(c1)NC(=O)/C2=C\c1[nH]c(C)c(C(=O)NCCN(C)C)c1-c1ccccc1 [Example 45, 5-[6-(2-Methoxy-phenyl)-2-oxo-1,2-dihydroindol-3-ylidenemethyl]-2-methyl-4-phenyl-1H-pyrrole-3-carboxylic acid (2-dimethylamino-ethyl)amide]",–,–,4.52,–,5.77
"CCN(CC)CCCNC(=O)c1[nH]c(/C=C2\C(=O)Nc3ccc(Br)cc32)c2c1CCCC2 [Example 18, 3-(5-Bromo-2-oxo-1,2-dihydroindol-3-ylidenemethyl)-4,5,6,7-tetrahydro-2H-isoindole-1-carboxylic acid (3-diethylaminopropyl)amide]",–,5.59,5.03,5.30,5.57
"Cc1[nH]c(/C=C2\C(=O)Nc3ccc(-c4ccccc4)cc32)c(C)c1C(=O)NCCCN(C)C [Example 66, 2,4-Dimethyl-5-(2-oxo-5-phenyl-1,2-dihydroindol-3-ylidenemethyl)-1H-pyrrole-3-carboxylic acid (3-dimethylamino-propyl)amide]",–,< 4.00,4.93,5.56,> 7.30
"O=C1Nc2ccc(Br)cc2/C1=C/c1[nH]c(C(=O)NCCCN2CCCC2)c2c1CCCC2 [Example 19, 3-(5-Bromo-2-oxo-1,2-dihydroindol-3-ylidenemethyl)-4,5,6,7-tetrahydro-2H-isoindole-1-carboxylic acid (3-pyrrolidin-1-ylpropyl)amide]",–,5.16,4.47,5.08,5.12
"COc1ccccc1-c1ccc2c(c1)NC(=O)/C2=C\c1[nH]c(C)c(C(=O)NCCN(C)C)c1C [Example 54, 5-[6-(2-Methoxy-phenyl)-2-oxo-1,2-dihydroindol-3-ylidenemethyl)-2,4-dimethyl-1H-pyrrole-3-carboxylic acid (2-dimethylamino-ethyl)amide]",–,4.62,5.01,5.15,5.70
"CCN(CC)CCCNC(=O)c1[nH]c(/C=C2\C(=O)Nc3ccc(Br)cc32)c(C(=O)c2ccccc2)c1C [Example 21, 4-Benzoyl-5-(5-bromo-2-oxo-1,2-dihydroindol-3-ylidenemethyl)-3-methyl-1H-pyrrole-2-carboxylic acid (3-diethylaminopropyl)amide]",< 4.00,4.39,–,4.56,5.14
"CCN(CC)CCCNC(=O)c1[nH]c(/C=C2\C(=O)Nc3cc(-c4ccccc4)ccc32)cc1C [Example 14, 3-Methyl-5-(2-oxo-6-phenyl-1,2-dihydroindol-3-ylidenemethyl)-1H-pyrrole-2-carboxylic acid (3-diethylaminopropyl)amide]",4.37,< 4.00,–,4.18,4.89
"CCc1ccc(-c2ccc3c(c2)NC(=O)/C3=C\c2[nH]c(C)c(C(=O)NCCN3CCCC3)c2C)cc1 [Example 77, 5-[6-(4-Ethyl-phenyl)-2-oxo-1,2-dihydroindol-3-ylidenemethyl]-2,4-dimethyl-1H-pyrrole-3-carboxylic acid (2-pyrrolidin-1-yl-ethyl)amide]",4.60,< 4.00,–,< 4.00,6.31
"COc1ccc(C(C)C)cc1-c1ccc2c(c1)NC(=O)/C2=C\c1[nH]c(C)c(C(=O)NCCN2CCCC2)c1C [Example 76, 5-[6-(5-Isopropyl-2-methoxy-phenyl)-2-oxo-1,2-dihydroindol-3-ylidenemethyl]-2,4-dimethyl-1H-pyrrole-3-carboxylic acid (2-pyrrolidin-1-yl-ethyl)amide]",4.72,5.29,–,5.52,5.48
"Cc1cc(C(=O)NCCCN2CCCC2)[nH]c1/C=C1\C(=O)Nc2ccc(Br)cc21 [Example 6, 5-(5-Bromo-2-oxo-1,2-dihydroindol-3-ylidenemethyl)-4-methyl-1H-pyrrole-2-carboxylic acid (3-pyrrolidin-1-ylpropyl)amide]",–,5.49,5.11,5.61,5.39
"CCN(CC)CCNC(=O)c1[nH]c(/C=C2\C(=O)Nc3cc(-c4cccnc4)ccc32)c2c1CCCC2 [Example 20, 3-(2-Oxo-6-pyridin-3-yl-1,2-dihydroindol-3-ylidenemethyl)-4,5,6,7-tetrahydro-2H-isoindole-1-carboxylic acid (2-diethylaminoethyl)amide]",–,< 4.00,4.39,5.10,4.94
"Cc1[nH]c(/C=C2\C(=O)Nc3cc(-c4cccc(C(C)C)c4)ccc32)c(C)c1C(=O)NCCN1CCCC1 [Example 79, 5-[6-(3-Isopropyl-phenyl)-2-oxo-1,2-dihydroindol-3-ylidenemethyl]-2,4-dimethyl-1H-pyrrole-3-carboxylic acid (2-pyrrolidin-1-yl-ethyl)amide]",< 4.00,4.56,–,< 4.00,5.83
"CCN(CC)CCCNC(=O)c1[nH]c(/C=C2\C(=O)Nc3ccc(Br)cc32)cc1C [Example 13, 5-(5-Bromo-2-oxo-1,2-dihydroindol-3-ylidenemethyl)-3-methyl-1H-pyrrole-2-carboxylic acid (3-diethylaminopropyl)amide]",4.09,5.09,–,5.58,< 4.70
"Cc1[nH]c(/C=C2\C(=O)Nc3cc(-c4ccccc4)ccc32)c(C)c1C(=O)NCCN(C)C [Example 49, 2,4-Dimethyl-5-(2-oxo-6-phenyl-1,2-dihydroindol-3-ylidenemethyl)-1H-pyrrole-3-carboxylic acid (2-dimethylamino-ethyl)amide]",–,–,4.36,–,–
"CC(=O)c1c(/C=C2\C(=O)Nc3ccc(Br)cc32)[nH]c(C(=O)NCCCO)c1C [Example 32, 4-Acetyl-5-(5-bromo-2-oxo-1,2-dihydroindol-3-ylidenemethyl)-3-methyl-1H-pyrrole-2-carboxylic acid (3-hydroxy-propyl)amide]",5.23,< 4.00,–,< 4.00,4.34
"Cc1[nH]c(/C=C2\C(=O)Nc3ccc(Cl)cc32)c(C)c1C(=O)NCCN(C)C [Example 50, 5-(5-Chloro-2-oxo-1,2-dihydroindol-3-ylidenemethyl)-2,4-dimethyl-1H-pyrrole-3-carboxylic acid (2-dimethylamino-ethyl)amide]",–,–,4.69,–,–
